Source: patent publication US11890288B2, “Sulfonamide or sulfinamide compound having effect of inducing BRD4 protein degradation and pharmaceutical use thereof” (MITSUBISHI TANABE PHARMA CORPORATION, priority 2020, dated 2024)
Marks after values point to notes of the source that are not given here.

Assays:
[1] = test system: human acute myeloid leukemia MV-4-11 cell transplanted mouse; assay: Antitumor effect in MV-4-11 cell transplanted mouse (tail vein, days 1, 5, 9, 13); format: in vivo; conditions: tumor weight on day 15
Protocol: The in vivo antitumor effect of the compound of the present invention was studied using human acute myeloid leukemia MV-4-11 cell transplanted mouse. MV-4-11 cells were subcutaneously transplanted into the inguinal region of male, 6-week-old BALB/c nude mouse (5×10^6 cells/mouse). The compound of the present invention was administered into the tail vein on days 1, 5, 9, 13 from the time point when the assumed tumor volume determined from ½ab^2 (a is major axis and b is minor axis of tumor) reached about 100 mm^3 (day 1). The control group was administered with a solvent, 20% hydroxypropyl-β-cyclodextrin solution. On day 15, the tumor was isolated, the weight was measured, and the tumor growth inhibitory rate IR (%) was calculated by the following formula. tumor growth inhibitory rate IR (%)={1−(average tumor weight of administration group/average tumor weight of nonadministration control group)}×100(%)

[2] = test system: human bladder cancer 5637 cell; assay: Cytotoxic action on 5637 cells (WST-8, 96 hr); format: cell-based; conditions: 5637, 96 hr
Protocol: (§1) The cytotoxic action of the compound of the present invention against human cancer cells was evaluated in vitro. In this experiment, (+)-JQ1 (Nature volume 468, pages 1067-1073 (23 Dec. 2010)) known to have an inhibitory activity on the binding of BRD4 protein and a ligand therefor was used as a positive control drug. Respective cells were suspended in 10% FBS/RPMI1640, seeded in a 96 well plate and cultured at 5% CO2, 37° C. overnight. A test compound dissolved in DMSO was diluted with 10% FBS/RPMI1640 and added and the cells were further cultured for 96 hr. After culturing, the viable cell number was measured using a cell number measurement WST-8 kit (Kishida Chemical Co., Ltd.). As a control, the measurement was performed under conditions free of the test compound. The cytotoxic activity of the compound of the present invention against human prostate cancer LNCaP cells is shown in IC50 value in Table 1. The IC50 value is a concentration of the compound showing 50% cell survival rate when the cell survival rate thereof under compound untreated condition is 100%. It was calculated from the straight line connecting the cell survival rate at two points enclosing the 50% cell survival rate and the compound concentration. […]

[3] = molecular target: BRD4 protein (Homo sapiens (Human), UniProt O60885); assay: BRD4 protein degradation inducing action in LNCaP cells (immunofluorescence, 6 hr); format: cell-based; conditions: anti-BRD4 fluorescence intensity
In short: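 Read-out is BRD4 immunofluorescence intensity (560/572 nm) after 6 hr compound treatment of LNCaP cells in 10% FBS/RPMI1640, with fixation, permeabilization and anti-BRD4 staining. Linear interpolation between the two concentrations flanking 50% of untreated intensity gives DC50.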

[4] = test system: human T-cell leukemia Jurkat cells; assay: Cytotoxic action on Jurkat cells (WST-8, 96 hr); format: cell-based
Protocol: as §1

[5] = Maximum tolerated dose in rats (single tail vein administration); conditions: rat, in vivo, intravenous, male CD (SD) rats
Protocol: The maximum tolerated dose (MTD) in rats was determined for the compound of the present invention.

[6] = test system: human uterine sarcoma MES-SA cell; assay: Cytotoxic action on MES-SA cells (WST-8, 96 hr); format: cell-based
Protocol: as §1

[7] = test system: human diffuse large B-cell lymphoma SU-DHL-6 cell; assay: Cytotoxic action on SU-DHL-6 cells (WST-8, 96 hr); format: cell-based; conditions: SU-DHL-6, 96 hr
Protocol: as §1

[8] = test system: human glioma U-87 MG cell; assay: Cytotoxic action on U-87 MG cells (WST-8, 96 hr); format: cell-based
Protocol: as §1

[9] = test system: human large cell lung cancer NCI-H460 cell; assay: Cytotoxic action on NCI-H460 cells (WST-8, 96 hr); format: cell-based; conditions: NCI-H460, 96 hr
Protocol: as §1

Structure (SMILES): COC(=O)C[C@@H]1N=C(c2ccc(-c3ccc(C(=O)NCc4ccc(S(=O)(=O)Nc5ccc(C)c6c(C#N)c[nH]c56)cc4)cc3)cc2)c2c(sc(C)c2C)-n2c(C)nnc21 [Example 1, methyl [(6S)-4-{4′-[({4-[(3-cyano-4-methyl-1H-indol-7-yl)sulfamoyl]phenyl}methyl)carbamoyl][1,1′-biphenyl]-4-yl}-2,3,9-trimethyl-6H-thieno[3,2-f][1,2,4]triazolo[4,3-a][1,4]diazepin-6-yl]acetate]
- tumor growth inhibitory rate ([1]; 1 mg/kg/day): 68.4* %
- tumor growth inhibitory rate ([1]; 3 mg/kg/day): 95.3* %
- IC50 [2]: 1.9 nM
- DC50 [3]: 0.15 nM
- IC50 [4]: 1.3 nM
- MTD [5]: > 10 mg/kg
- IC50 [6]: 1.8 nM
- IC50 [7]: 0.44 nM
- IC50 [8]: 6 nM
- IC50 [9]: 28 nM
